Results published in ChEMBL document CHEMBL4334527, “Proline-Based Allosteric Inhibitors of Zika and Dengue Virus NS2B/NS3 Proteases” (J Med Chem, 2019).
Activity calls are given as the source filed them. The rule behind the calls is not given here.

Experiments:
[1] = (§1) Inhibition of N-terminal hexa-histidine tagged Dengue virus 2 NS2B/NS3 protease I30A/L31A/T122C mutant expressed in Escherichia coli BL21-Gold (DE3) using fluorogenic AMC-substituted peptide boc-GRR-7-amino-4-methylcoumarin measured every 30 secs for 10 mins by fluorometric assay; set-up: species or system dengue virus type 2
[2] = (§2) Inhibition of N-terminal hexa-histidine tagged Dengue virus 2 NS2B/NS3 protease I30A/L31A mutant expressed in Escherichia coli BL21-Gold (DE3) using fluorogenic AMC-substituted peptide boc-GRR-7-amino-4-methylcoumarin measured every 30 secs for 10 mins by fluorometric assay; set-up: species or system dengue virus type 2
[3] = (§3) Inhibition of N-terminal hexa-histidine tagged Dengue virus 2 NS2B/NS3 protease I30A/L31A/T118C mutant expressed in Escherichia coli BL21-Gold (DE3) using fluorogenic AMC-substituted peptide boc-GRR-7-amino-4-methylcoumarin measured every 30 secs for 10 mins by fluorometric assay; set-up: species or system dengue virus type 2
Zika virus [4] = assay: Antiviral activity against Zika virus French Polynesia infected in human A549 cells assessed as reduction in viral RNA at 5 uM measured after 24 to 72 hrs post infection by RT-qPCR analysis; assay type: functional, organism-based
[5] = as §1, with “(DE3) in presence of N-ethylmaleimide” for “(DE3)”; set-up: species or system dengue virus type 2
[6] = as §1, with “(DE3) in presence of N-benzylmaleimide” for “(DE3)”; set-up: species or system dengue virus type 2
Zika virus [7] = assay: Antiviral activity against Zika virus infected in African green monkey Vero cells assessed as suppression of viral replication at 10 uM pre-incubated with cells for 1 hr before viral infection and measured after 4 days by RT-qPCR analysis; assay type: functional, organism-based
[8] = as §3, with “(DE3) in presence of N-benzylmaleimide” for “(DE3)”; set-up: species or system dengue virus type 2
Zika virus [9] = assay: Antiviral activity against Zika virus Uganda infected in human A549 cells assessed as reduction in viral RNA at 5 uM measured after 24 to 72 hrs post infection by RT-qPCR analysis; assay type: functional, organism-based
[10] = as §2, with “(DE3) in presence of N-ethylmaleimide” for “(DE3)”; set-up: species or system dengue virus type 2
[11] = as §1, with “I30A/L31A/T120C” for “I30A/L31A/T122C”, “(DE3) in presence of N-benzylmaleimide” for “(DE3)”; set-up: species or system dengue virus type 2
[12] = as §1, with “I30A/L31A/T120C” for “I30A/L31A/T122C”, “(DE3) in presence of N-ethylmaleimide” for “(DE3)”; set-up: species or system dengue virus type 2
Zika virus [13] = assay: Antiviral activity against Zika virus infected in human A549 cells assessed as induction of redistribution of the ZIKV Env protein from ER to cytoplasm at 0.5 uM by confocal scanning microscopy; assay type: functional, organism-based
Nonstructural protein 3 [14] = target: T1, Nonstructural protein 3 (Zika virus, UniProt A0A024AXB9); assay: Inhibition of N-terminal hexa-histidine tagged Zika virus NS2B/NS3 protease expressed in Escherichia coli BL21-Gold (DE3) using fluorogenic AMC-substituted peptide boc-GRR-7-amino-4-methylcoumarin measured every 30 secs for 10 mins by fluorometric assay
T1 sequence (A0A024AXB9 whole entry): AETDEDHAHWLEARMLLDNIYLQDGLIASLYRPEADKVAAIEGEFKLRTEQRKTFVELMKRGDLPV

[15] = Inhibition of N-terminal hexa-histidine tagged Dengue virus 2 NS2B/NS3 protease I30A/L31A/T120C mutant expressed in Escherichia coli BL21-Gold (DE3) using fluorogenic AMC-substituted peptide boc-GRR-7-amino-4-methylcoumarin measured every 30 secs for 10 mins by fluorometric assay; set-up: species or system dengue virus type 2
Nonstructural protein 3 [16] = target: T1, Nonstructural protein 3; assay: Inhibition of Zika virus NS2B/NS3 protease
[17] = as §2, with “(DE3) in presence of N-benzylmaleimide” for “(DE3)”; set-up: species or system dengue virus type 2
A549 = assay: Cytotoxicity against human A549 cells assessed as reduction in cell viability up to 5 uM by Presto blue cell viability reagent based assay
[18] = Permeability in human C2BBe1 cells at 10 uM incubated for 3 hrs by LC-MS analysis relative to control; assay type: ADME, cell-based; conditions: c2bbe1, 3 h
dengue virus type 2 = assay: Antiviral activity against Dengue virus 2 infected in African green monkey Vero cells assessed as suppression of viral replication at 10 uM pre-incubated with cells for 1 hr before viral infection and measured after 4 days by RT-qPCR analysis; assay type: functional, organism-based
[19] = Drug metabolism in rat liver microsomes assessed as formation of (S)-N-(5,6-Dimethoxybenzo[d]thiazol-2-yl)-1-((4-(hydroxymethyl) phenyl) sulfonyl)pyrrolidine-2-carboxamide in presence of NADPH generating system by LC-MS/MS analysis; assay type: ADME, Microsome
[20] = Drug metabolism in rat liver microsomes assessed as formation of (R)-N-(5,6-Dihydroxybenzo[d]thiazol-2-yl)-1-tosylpyrrolidine-2-carboxamide in presence of NADPH generating system by LC-MS/MS analysis; assay type: ADME, Microsome
[21] = Drug metabolism in rat liver microsomes assessed as formation of (R)-N-(5,6-Dimethoxybenzo[d]thiazol-2-yl)-1-((4-(hydroxymethyl) phenyl) sulfonyl)pyrrolidine-2-carboxamide in presence of NADPH generating system by LC-MS/MS analysis; assay type: ADME, Microsome
[22] = Drug metabolism in rat liver microsomes assessed as formation of (S)-1-Benzoyl-N-(5,6-dihydroxybenzo[d]thiazol-2-yl)pyrrolidine-2-carboxamide in presence of NADPH generating system by LC-MS/MS analysis; assay type: ADME, Microsome

In the case of O=C(Nc1nc2cc(O)c(O)cc2s1)c1ccccc1Oc1ccc2cc(O)ccc2c1, the IC50 [1] is reported as 2.67 µM, the IC50 [2] is reported as 4.2 to 4.22 µM and the IC50 [3] is reported as 1 µM. For the same molecule, the Activity (Zika virus [4]) was “inactive”, the IC50 [5] was 14.1 µM and the IC50 [6] was 15.8 µM. For the same molecule, the Activity (Zika virus [7]) was “inactive”, the IC50 [8] was 7.06 µM and the Activity (Zika virus [9]) was “inactive”. For the same molecule, the IC50 [10] was 4.11 µM, the IC50 [11] was 12.6 µM and the IC50 [12] was 8.53 µM. For the same molecule, the Activity (Zika virus [13]) was “inactive”, the IC50 (Nonstructural protein 3 [14]) was 1.41 µM and the IC50 [15] was 1.97 µM. For the same molecule, the IC50 (Nonstructural protein 3 [16]) was 1.42 µM, the IC50 [17] was 4.96 µM and the Activity (A549) was “Non-Toxic”.

With COc1cc2nc(NC(=O)[C@H]3CCCN3S(=O)(=O)c3ccc(C)cc3)sc2cc1OC the permeability [18] was 91%, the Activity (Zika virus [4]) was “inactive” and the Activity (Zika virus [7]) was “inactive”. The Activity (dengue virus type 2) was “Active”, the Activity (Zika virus [9]) was “inactive” and the Drug metabolism [19] was “Metabolite_Detected”. The Drug metabolism [20] was “Metabolite_Detected”, the Drug metabolism [21] was “Metabolite_Detected” and the Drug metabolism [22] was “Metabolite_Detected”. The Activity (A549) was “Non-Toxic”.
